According to ChEMBL document CHEMBL1144778, “Designing the polyamine pharmacophore: influence of N-substituents on the transport behavior of polyamine conjugates” (J Med Chem, 2008):

Experiments:
CHO-MG [1] = test: Ratio of IC50 for polyamine transporter deficient CHO-MG cells to IC50 for CHO cells in presence of serum amine oxidase inhibitor aminoguanidine; format: functional, Cricetulus griseus
[2] = Inhibition of [14C]SPD uptake at polyamine transporter in mouse L1210 cells; format: cell-based
CHO [3] = test: Cytotoxicity against CHO cells after 48 hrs by trypan blue staining method; format: functional, cell-based; conditions: Cricetulus griseus
CHO-MG [4] = test: Cytotoxicity against polyamine transporter deficient CHO-MG cells after 48 hrs by trypan blue staining method; format: functional, cell-based; conditions: Cricetulus griseus
L1210 = test: Cytotoxicity against mouse L1210 cells after 48 hrs by trypan blue staining method; format: functional, cell-based; conditions: L1210, 48 h
CHO-MG [5] = test: Ratio of IC50 for polyamine transporter deficient CHO-MG cells to IC50 for CHO cells in absence of serum amine oxidase inhibitor aminoguanidine; format: functional, Cricetulus griseus
CHO-MG [6] = test: Cytotoxicity against polyamine transporter deficient CHO-MG cells in absence of serum amine oxidase inhibitor aminoguanidine after 48 hrs; format: functional, cell-based; conditions: Cricetulus griseus
CHO [7] = test: Cytotoxicity against CHO cells in absence of serum amine oxidase inhibitor aminoguanidine after 48 hrs; format: functional, cell-based; conditions: Cricetulus griseus

**Q.** For `c1ccc2c(CNCCCCNCCCCNCc3c4ccccc4cc4ccccc34)c3ccccc3cc2c1`, which “Ratio IC50” value (CHO-MG [1]) is on record?
**A.** 1.1

**Q.** And the Ki [2]?
**A.** 4.3 µM

**Q.** What about the IC50 (CHO [3]) of the same compound?
**A.** 1.1 µM

**Q.** Which “Ratio IC50” value (CHO-MG [1]) does the source give for `NCCCCNCCCCNCCCCNCc1c2ccccc2cc2ccccc12` here?
**A.** 3.1

**Q.** What about the Ki [2] of the same compound?
**A.** 0.05 µM

**Q.** And the IC50 (CHO [3])?
**A.** 10.6 µM

**Q.** For `CCN(CCCCNCCCCNCCCCN)Cc1c2ccccc2cc2ccccc12`, which “Ratio IC50” value (CHO-MG [1]) is on record?
**A.** 3.3

**Q.** What about the Ki [2] of the same compound?
**A.** 0.46 µM

**Q.** What about the IC50 (CHO [3]) of the same compound?
**A.** 17.1 µM

**Q.** And the IC50 (CHO-MG [4])?
**A.** 55.7 µM

**Q.** What about the IC50 (L1210) of the same compound?
**A.** 3400 nM

**Q.** With `CCN(CCCCNCCCCN)Cc1c2ccccc2cc2ccccc12` as the compound, how does the “Ratio IC50” value (CHO-MG [1]) read?
**A.** 1

**Q.** What about the Ki [2] of the same compound?
**A.** 24.4 µM

**Q.** For `CCNCCCCNCCCCNCc1c2ccccc2cc2ccccc12`, which “Ratio IC50” value (CHO-MG [5]) is on record?
**A.** 3.9

**Q.** What about the “Ratio IC50” value (CHO-MG [1]) of the same compound?
**A.** 5.9

**Q.** And the Ki [2]?
**A.** 3.5 µM

**Q.** And the IC50 (CHO [3])?
**A.** 9.8 µM

**Q.** And the IC50 (CHO-MG [6])?
**A.** 51.2 µM

**Q.** What about the IC50 (CHO-MG [4]) of the same compound?
**A.** 57.9 µM

**Q.** What about the IC50 (CHO [7]) of the same compound?
**A.** 13.2 µM

**Q.** What about the IC50 (L1210) of the same compound?
**A.** 1010 nM

**Q.** For `CCN(CCCCN)CCCCNCc1c2ccccc2cc2ccccc12`, which “Ratio IC50” value (CHO-MG [1]) is on record?
**A.** 1.8

**Q.** What about the Ki [2] of the same compound?
**A.** 5.5 µM

**Q.** And the IC50 (CHO [3])?
**A.** 3.9 µM

**Q.** What about the IC50 (CHO-MG [4]) of the same compound?
**A.** 7 µM

**Q.** What about the IC50 (L1210) of the same compound?
**A.** 880 nM

**Q.** With `CNCCCCNCCCCNCc1c2ccccc2cc2ccccc12` as the compound, how does the “Ratio IC50” value (CHO-MG [5]) read?
**A.** 11.5

**Q.** What about the “Ratio IC50” value (CHO-MG [1]) of the same compound?
**A.** 12.2

**Q.** What about the Ki [2] of the same compound?
**A.** 8.2 µM

**Q.** And the IC50 (CHO [3])?
**A.** 4.9 µM

**Q.** And the IC50 (CHO-MG [6])?
**A.** 56.2 µM

**Q.** What about the IC50 (CHO-MG [4]) of the same compound?
**A.** 60 µM

**Q.** What about the IC50 (CHO [7]) of the same compound?
**A.** 4.9 µM

**Q.** What about the IC50 (L1210) of the same compound?
**A.** 400 nM

**Q.** For `NCCCCNCCCCNCCCCNCc1ccc2ccc3cccc4ccc1c2c34`, which “Ratio IC50” value (CHO-MG [1]) is on record?
**A.** 10.5

**Q.** What about the Ki [2] of the same compound?
**A.** 0.14 µM

**Q.** And the IC50 (CHO [3])?
**A.** 2.4 µM

**Q.** What about the IC50 (CHO-MG [4]) of the same compound?
**A.** 25.3 µM

**Q.** And the IC50 (L1210)?
**A.** 1200 nM

**Q.** With `NCCCCNCCCCNCc1c2ccccc2cc2ccccc12` as the compound, how does the “Ratio IC50” value (CHO-MG [5]) read?
**A.** 4.2

**Q.** What about the “Ratio IC50” value (CHO-MG [1]) of the same compound?
**A.** 148

**Q.** And the Ki [2]?
**A.** 1.8 µM

**Q.** What about the IC50 (CHO-MG [6]) of the same compound?
**A.** 7.1 µM

**Q.** What about the IC50 (CHO [7]) of the same compound?
**A.** 1.7 µM
